Reference: patent US12077503B2, “Substituted cyclic amides and their use as herbicides” (FMC CORPORATION, priority 2015, dated 2024)

Columns and labels:
Type in all cases: in vivo
[1] = test system: barnyardgrass (Echinochloa crus-galli); assay: Test B flooded paddy test; conditions: Flood, 250 g ai/ha; visually evaluated after 13 to 15 d
Outline: (§1)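 Percent control, visually estimated after 13–15 d in the greenhouse on a 0–100 basis, compares treated pots with untreated ones; compound was put into paddy water 3 cm above the soil when plants had two leaves.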

rice (Oryra sativa) = assay: Test B flooded paddy test; conditions: Flood, 250 g ai/ha; visually evaluated after 13 to 15 d
Outline: as §1

[2] = test system: ducksalad (Heteranthera limosa); assay: Test B flooded paddy test; conditions: Flood, 250 g ai/ha; visually evaluated after 13 to 15 d
Outline: as §1

[3] = test system: sedge, umbrella (small-flower umbrella sedge, Cyperus difformis); assay: Test B flooded paddy test; conditions: Flood, 250 g ai/ha; visually evaluated after 13 to 15 d
Outline: as §1

[4] = test system: ragweed (common ragweed, Ambrosia elatior); assay: Test A preemergence; conditions: 0 to 100 scale (0 no effect, 100 complete control)
Outline: (§2)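 Ratings of 0 (no effect) to 100 (complete control) come from visual comparison with untreated controls roughly 10 d after treatment. Test chemicals, formulated in a non-phytotoxic solvent mixture with surfactant, were applied either as a preemergence directed soil spray on seeded soil or postemergence to one- to two-leaf plants 2 to 10 cm tall.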

Kochia (Kochia scoparia) [5] = assay: Test A preemergence; conditions: 0 to 100 scale (0 no effect, 100 complete control)
Outline: as §2

[6] = test system: pigweed (Amaranthus retroflexus); assay: Test A preemergence; conditions: 0 to 100 scale (0 no effect, 100 complete control)
[7] = test system: barnyardgrass (Echinochloa crus-galli); assay: Test A preemergence; conditions: 0 to 100 scale (0 no effect, 100 complete control)
Outline: as §2

[8] = test system: giant foxtail (Setaria faberii); assay: Test A preemergence; conditions: 0 to 100 scale (0 no effect, 100 complete control)
Outline: as §2

[9] = test system: ryegrass, Italian (Italian ryegrass, Lolium multiflorum); assay: Test A preemergence; conditions: 0 to 100 scale (0 no effect, 100 complete control)
Outline: as §2

[10] = test system: ragweed (common ragweed, Ambrosia elatior); assay: Test A postemergence; conditions: Postemergence
Outline: as §2

[11] = test system: Galium (catchweed bedstraw, Galium aparine); assay: Test A postemergence; conditions: Postemergence
Outline: as §2

Kochia (Kochia scoparia) [12] = assay: Test A postemergence; conditions: Postemergence
Outline: as §2

[13] = test system: pigweed (Amaranthus retroflexus); assay: Test A postemergence; conditions: Postemergence
Outline: as §2

corn (Zea mays) = assay: Test A postemergence; conditions: Postemergence
Outline: as §2

[14] = test system: barnyardgrass (Echinochloa crus-galli); assay: Test A postemergence; conditions: Postemergence
Outline: as §2

[15] = test system: blackgrass (Alopecurus myosuroides); assay: Test A postemergence; conditions: Postemergence
Outline: as §2

[16] = test system: giant foxtail (Setaria faberii); assay: Test A postemergence; conditions: Postemergence
Outline: as §2

[17] = test system: ryegrass, Italian (Italian ryegrass, Lolium multiflorum); assay: Test A postemergence; conditions: Postemergence
Outline: as §2

[18] = test system: wheat (Triticum aestivum); assay: Test A postemergence; conditions: Postemergence
Outline: as §2

[19] = 125 g ai/ha, visual injury after approx. 10 d, 0 to 100 scale, 0 no effect, 100 complete control
[20] = 500 g ai/ha, visual injury, 0 to 100 scale (0 no effect, 100 complete control), approx. 10 d

## O=C(Nc1cccc(F)c1F)C1C(=S)NCC1c1ccc(Cl)cc1 (stereo not drawn) [Compound 1387]
[1]
  Plant response rating, Barnyardgrass (0 to 100 scale where 0 is no effect and 100 is complete control): 0
Rice (Oryra sativa)
  Plant response rating, Rice (0 to 100 scale where 0 is no effect and 100 is complete control): 0
[2]
  Plant response rating, Ducksalad (0 to 100 scale where 0 is no effect and 100 is complete control): 0
[3]
  Plant response rating, Sedge, Umbrella (0 to 100 scale where 0 is no effect and 100 is complete control): 0
[4]; 500 g ai/ha, preemergence
  Plant response rating, Ragweed: 0
[4]; Preemergence, 125 g ai/ha
  Plant response rating, Ragweed: 0
Kochia (Kochia scoparia) [5]; 500 g ai/ha, preemergence
  Plant response rating, Kochia: 60
Kochia (Kochia scoparia) [5]; Preemergence, 125 g ai/ha
  Plant response rating, Kochia: 30
[6]; 500 g ai/ha, preemergence
  Plant response rating, Pigweed: 60
[6]; Preemergence, 125 g ai/ha
  Plant response rating, Pigweed: 0
[7]; 500 g ai/ha, preemergence
  Plant response rating, Barnyardgrass: 90
[7]; Preemergence, 125 g ai/ha
  Plant response rating, Barnyardgrass: 50
[8]; 500 g ai/ha, preemergence
  Plant response rating, Foxtail, Giant: 90
[8]; Preemergence, 125 g ai/ha
  Plant response rating, Foxtail, Giant: 80
[9]; 500 g ai/ha, preemergence
  Plant response rating, Ryegrass, Italian: 0
[9]; Preemergence, 125 g ai/ha
  Plant response rating, Ryegrass, Italian: 0
[10]; [19]
  Plant response rating, Ragweed: 0
[10]; [20]
  Plant response rating, Ragweed: 30
[11]; [19]
  Plant response rating, Galium: 30
[11]; [20]
  Plant response rating, Galium: 50
Kochia (Kochia scoparia) [12]; [19]
  Plant response rating, Kochia: 0
Kochia (Kochia scoparia) [12]; [20]
  Plant response rating, Kochia: 50
[13]; [19]
  Plant response rating, Pigweed: 0
[13]; [20]
  Plant response rating, Pigweed: 60
Corn (Zea mays); [19]
  Plant response rating, Corn: 0
Corn (Zea mays); [20]
  Plant response rating, Corn: 10
[14]; [19]
  Plant response rating, Barnyardgrass: 60
[14]; [20]
  Plant response rating, Barnyardgrass: 80
[15]; [19]
  Plant response rating, Blackgrass: 0
[15]; [20]
  Plant response rating, Blackgrass: 40
[16]; [19]
  Plant response rating, Foxtail, Giant: 60
[16]; [20]
  Plant response rating, Foxtail, Giant: 80
[17]; [19]
  Plant response rating, Ryegrass, Italian: 0
[17]; [20]
  Plant response rating, Ryegrass, Italian: 40
[18]; [19]
  Plant response rating, Wheat: 0
[18]; [20]
  Plant response rating, Wheat: 0
